Test results from ChEMBL document CHEMBL4196217, “Structure-Based Drug Design and Identification of H2O-Soluble and Low Toxic Hexacyclic Camptothecin Derivatives with Improved Efficacy in Cancer and Lethal Inflammation Models in Vivo” (J Med Chem, 2018).
Calls of active or inactive are those of the source. The rule behind the calls is not given here.

Columns and labels:
MCF7 = assay: cells; conditions: Homo sapiens, MCF7, 48 h
Description: Cytotoxicity in human MCF7 cells assessed as reduction in cell viability incubated for 48 hrs by MTT assay

Mus musculus [1] = assay: Toxicity in Balb/C mouse administered as daily dose for 1 week measured daily for up to 28 days; format: organism-based; conditions: in vivo
HepG2 [2] = assay: Antitumor activity against human HepG2 cells xenografted in Balb/C mouse assessed as inhibition of tumor growth at 2 mg/kg, iv dosed once per week for 30 days followed by 2 weeks observation; format: functional, organism-based
[3] = biological target: T1, DNA topoisomerase 1 (Homo sapiens) (UniProt P11387); assay: Inhibition of human recombinant topoisomerase-1-mediated DNA cleavage in at 100 uM using supercoiled pHOT-1 DNA incubated for 30 mins by ethidium bromide staining based agarose gel elctrophoresis method
T1 sequence (whole entry): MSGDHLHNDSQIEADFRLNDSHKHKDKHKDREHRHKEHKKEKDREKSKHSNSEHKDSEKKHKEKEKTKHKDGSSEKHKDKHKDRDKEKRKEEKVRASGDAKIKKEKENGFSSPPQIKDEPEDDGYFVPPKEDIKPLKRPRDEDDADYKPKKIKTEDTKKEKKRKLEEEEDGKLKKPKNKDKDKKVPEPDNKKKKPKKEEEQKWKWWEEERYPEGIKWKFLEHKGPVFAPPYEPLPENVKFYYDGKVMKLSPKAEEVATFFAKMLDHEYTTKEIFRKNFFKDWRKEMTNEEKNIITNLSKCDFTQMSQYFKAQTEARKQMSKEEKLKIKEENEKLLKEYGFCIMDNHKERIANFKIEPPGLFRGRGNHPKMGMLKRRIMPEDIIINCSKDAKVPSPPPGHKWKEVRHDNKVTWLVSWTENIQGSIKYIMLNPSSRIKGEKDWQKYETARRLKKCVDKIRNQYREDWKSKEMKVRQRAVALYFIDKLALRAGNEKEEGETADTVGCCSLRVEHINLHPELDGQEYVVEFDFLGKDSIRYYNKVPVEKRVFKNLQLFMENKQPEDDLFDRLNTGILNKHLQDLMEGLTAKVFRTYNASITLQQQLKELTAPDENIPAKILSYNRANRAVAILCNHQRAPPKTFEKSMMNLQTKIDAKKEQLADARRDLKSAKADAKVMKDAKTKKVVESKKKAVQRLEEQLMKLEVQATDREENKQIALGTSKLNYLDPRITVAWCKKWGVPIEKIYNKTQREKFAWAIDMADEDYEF

Mus musculus [4] = assay: Toxicity in human HepG2 cells xenografted Balb/C mouse assessed as reduction in body weight at 2 mg/kg, iv dosed once per week for 30 days followed by 2 weeks observation; format: organism-based; conditions: in vivo, 336 h
HepG2 [5] = assay: Antitumor activity against human HepG2 cells xenografted in Balb/C mouse assessed as inhibition of tumor growth at 2 mg/kg, iv dosed once per week for 30 days followed by 2 weeks observation relative untreated control; format: functional; conditions: read-out: TGI
[6] = biological target: T1, DNA topoisomerase 1 (Homo sapiens); assay: Inhibition of human recombinant topoisomerase-1-mediated DNA cleavage in at 50 uM using supercoiled pHOT-1 DNA incubated for 30 mins by ethidium bromide staining based agarose gel elctrophoresis method
MDA-MB-231 = assay: Cytotoxicity in human MDA-MB-231 cells assessed as reduction in cell viability incubated for 48 hrs by MTT assay; format: functional, cell-based; conditions: MDA-MB-231, 48 h
SK-N-SH = assay: Cytotoxicity in human SK-N-SH cells assessed as reduction in cell viability incubated for 48 hrs by MTT assay; format: functional, cell-based
SGC-7901 = assay: Cytotoxicity in human SGC7901 cells assessed as reduction in cell viability incubated for 48 hrs by MTT assay; format: functional, cell-based; conditions: SGC-7901, 48 h
HepG2 [7] = assay: Cytotoxicity in human HepG2 cells assessed as reduction in cell viability incubated for 48 hrs by MTT assay; format: functional, cell-based; conditions: HepG2, 48 h
Bel-7402 = assay: Cytotoxicity in human Bel7402 cells assessed as reduction in cell viability incubated for 48 hrs by MTT assay; format: functional, cell-based; conditions: Bel-7402, 48 h
QGY-7703 = assay: Cytotoxicity in human QGY7703 cells assessed as reduction in cell viability incubated for 48 hrs by MTT assay; format: functional, cell-based; conditions: QGY-7703, 48 h
MGC-803 = assay: Cytotoxicity in human MGC803 cells assessed as reduction in cell viability incubated for 48 hrs by MTT assay; format: functional, cell-based; conditions: MGC-803, 48 h
[8] = Aqueous solubility of the compound; format: physicochemical; conditions: aqueous; read-out: solubility
SMMC-7721 = assay: Cytotoxicity in human SMMC7721 cells assessed as reduction in cell viability incubated for 48 hrs by MTT assay; format: functional, cell-based; conditions: SMMC-7721, 48 h
HepG2 [9] = assay: Antitumor activity against human HepG2 cells xenografted in Balb/C mouse assessed as inhibition of tumor growth at 30 mg/kg, iv dosed once per week for 30 days followed by 2 weeks observation relative untreated control; format: functional; conditions: read-out: TGI
Mus musculus [10] = assay: Toxicity in human HepG2 cells xenografted Balb/C mouse assessed as effect on mouse survival at 1.3 mg/kg, po qd for 30 days followed by 2 weeks observation; format: organism-based; conditions: in vivo, 336 h
Mus musculus [11] = assay: Protection against LPS-induced lethal inflammation in C57BL/6 mouse model of sepsis assessed as survival at 4 mg/kg, po dosed 0.5 hrs before LPS injection followed by 4 mg/kg, po dosing at 1 hr, 4 hrs, and 8 hrs after LPS treatment; format: functional
A549 = assay: cells; conditions: Homo sapiens, A549, 48 h
Description: Cytotoxicity in human A549 cells assessed as reduction in cell viability incubated for 48 hrs by MTT assay

Mus musculus [12] = assay: Toxicity in human HepG2 cells xenografted Balb/C mouse assessed as reduction in body weight at 1.3 mg/kg, po qd for 30 days followed by 2 weeks observation; format: organism-based; conditions: in vivo, 336 h
[13] = Drug metabolism in plasma of C57BL/6 mouse assessed as (9S)-9-Ethyl-9-hydroxy-3-isopropyl-2,3-dihydro[1,3]-oxazino[5,6-f ]pyrano[3',4':6,7]indolizino[1,2-b]quinoline-1,10,13(9H,12H,15H)-trione formation at 10 mg/kg, iv measured up to 1 hr by LC-MS/MS analysis; format: ADME, organism-based; conditions: in vivo
Mus musculus [14] = assay: Toxicity in human HepG2 cells xenografted Balb/C mouse assessed as effect on mouse survival at 4 mg/kg, iv dosed once per week for 30 days followed by 2 weeks observation; format: organism-based; conditions: in vivo, 336 h
Mus musculus [15] = assay: Toxicity in human HepG2 cells xenografted Balb/C mouse assessed as reduction in body weight at 8 mg/kg, iv dosed once per week for 30 days followed by 2 weeks observation; format: organism-based; conditions: in vivo, 336 h
[16] = Drug metabolism in plasma of C57BL/6 mouse assessed as (S)-8-Ethyl-8-hydroxy-2-isopropyl-8H-oxazolo[4,5-f ]-pyrano[3',4':6,7]indolizino[1,2-b]quinoline-9,12(11H,14H)-dione formation at 10 mg/kg, po measured up to 1 hr by LC-MS/MS analysis; format: ADME, organism-based; conditions: in vivo
Mus musculus [17] = assay: Toxicity in human HepG2 cells xenografted Balb/C mouse assessed as effect on mouse survival at 8 mg/kg, iv dosed once per week for 30 days followed by 2 weeks observation; format: organism-based; conditions: in vivo, 336 h
KB = assay: Cytotoxicity in human KB cells assessed as reduction in cell viability incubated for 48 hrs by MTT assay; format: functional, cell-based
Mus musculus [18] = assay: Toxicity in human HepG2 cells xenografted Balb/C mouse assessed as induction of gastrointestinal flatulence at 8 mg/kg, iv dosed once per week for 30 days followed by 2 weeks observation; format: organism-based; conditions: in vivo, 336 h
HepG2 [19] = assay: Antitumor activity against human HepG2 cells xenografted in Balb/C mouse assessed as inhibition of tumor growth at 4 mg/kg, iv dosed once per week for 30 days followed by 2 weeks observation relative untreated control; format: functional; conditions: read-out: TGI
[20] = Drug level in plasma of C57BL/6 mouse at 10 mg/kg, po measured up to 30 hrs by LC-MS/MS analysis; format: ADME, organism-based; conditions: in vivo
[21] = Drug metabolism in plasma of C57BL/6 mouse assessed as (9S)-9-Ethyl-9-hydroxy-3-isopropyl-2,3-dihydro[1,3]-oxazino[5,6-f ]pyrano[3',4':6,7]indolizino[1,2-b]quinoline-1,10,13(9H,12H,15H)-trione formation at 10 mg/kg, po measured up to 1 hr by LC-MS/MS analysis; format: ADME, organism-based; conditions: in vivo
Mus musculus [22] = assay: Toxicity in human HepG2 cells xenografted Balb/C mouse assessed as reduction in body weight at 4 mg/kg, iv dosed once per week for 30 days followed by 2 weeks observation; format: organism-based; conditions: in vivo, 336 h
Mus musculus [23] = assay: Toxicity in human HepG2 cells xenografted Balb/C mouse assessed as induction of gastrointestinal flatulence at 1/3 mg/kg, po qd for 30 days followed by 2 weeks observation; format: organism-based; conditions: in vivo, 336 h
HepG2 [24] = assay: Antitumor activity against human HepG2 cells xenografted in Balb/C mouse assessed as inhibition of tumor growth at 1.3 mg/kg, po qd for 30 days followed by 2 weeks observation relative untreated control; format: functional; conditions: read-out: TGI
Mus musculus [25] = assay: Toxicity in human HepG2 cells xenografted Balb/C mouse assessed as induction of gastrointestinal flatulence at 4 mg/kg, iv dosed once per week for 30 days followed by 2 weeks observation; format: organism-based; conditions: in vivo, 336 h
HepG2 [26] = assay: Antitumor activity against human HepG2 cells xenografted in Balb/C mouse assessed as inhibition of tumor growth at 8 mg/kg, iv dosed once per week for 30 days followed by 2 weeks observation relative untreated control; format: functional; conditions: read-out: TGI

SMILES: CC[C@@]1(O)C(=O)OCc2c1cc1n(c2=O)Cc2cc3c(CN(C)C)c(O)ccc3nc2-1 [TOPOTECAN]
- IC50 (MCF7): 2.14 µM
- MTD (Mus musculus [1]): 2 mg/kg
- TGI (HepG2 [2]): Active
- inhibition [3]: Active
- Activity (Mus musculus [4]): Toxic
- inhibition in vivo at 2 mg/kg (HepG2 [5]): 74%
- inhibition [6]: Active
- IC50 (MDA-MB-231): 1.9 µM
- IC50 (SK-N-SH): 0.093 µM
- IC50 (SGC-7901): > 10 µM
- IC50 (HepG2 [7]): 0.237 µM
- IC50 (Bel-7402): 7.12 µM
- IC50 (QGY-7703): 11.9 µM
- IC50 (MGC-803): 0.19 µM
- solubility [8]: < 1000 µg/mL
- IC50 (SMMC-7721): 11.6 µM

SMILES: CC[C@@]1(OC(=O)CNC(=O)CCC(=O)O)C(=O)OCc2c1cc1n(c2=O)Cc2cc3c4c(ccc3nc2-1)OC(C(C)C)NC4=O (stereo not given in full)
- IC50 (MCF7): > 10 µM
- inhibition in vivo at 30 mg/kg (HepG2 [9]): 90%
- Activity (Mus musculus [10]): Non-Toxic
- Activity (Mus musculus [11]): 100%
- IC50 (A549): 6.47 µM
- Activity (Mus musculus [12]): Non-Toxic
- Drug metabolism [13]: Metabolite_Notdetected
- IC50 (MDA-MB-231): 5.02 µM
- IC50 (SK-N-SH): 0.194 µM
- IC50 (SGC-7901): > 10 µM
- Activity (Mus musculus [14]): Non-Toxic
- Activity (Mus musculus [15]): Non-Toxic
- Drug metabolism [16]: Metabolite_Notdetected
- IC50 (HepG2 [7]): 0.971 µM
- Activity (Mus musculus [17]): Non-Toxic
- IC50 (KB): 7.28 µM
- IC50 (Bel-7402): > 10 µM
- Activity (Mus musculus [18]): Toxic
- inhibition in vivo at 4 mg/kg (HepG2 [19]): 83%
- IC50 (QGY-7703): > 10 µM
- IC50 (MGC-803): 0.971 µM
- Drug uptake [20]: Not Active
- Drug metabolism [21]: Metabolite_Notdetected
- Activity (Mus musculus [22]): Non-Toxic
- Activity (Mus musculus [23]): Toxic
- inhibition in vivo at 1.3 mg/kg (HepG2 [24]): 93%
- Activity (Mus musculus [25]): Toxic
- IC50 (SMMC-7721): > 10 µM
- inhibition in vivo at 8 mg/kg (HepG2 [26]): 93%
